From patent US5866392A, “Cellobiose oxidase, and enzymatic agent and a process for treating paper pulp” (priority 1992, dated 1999)
Like-named read-outs stand apart in the source and are kept apart here.

Assays:
CBH II (cellulase) = biological target: T1, CBH II (cellulase) (Humicola insolens, UniProt Q9C1S9); test: Coupled cellobiose oxidase/DCPIP assay for cellulases; type: biochemical; conditions: for Ki: coupled CBO/DCPIP assay, read-out: KL (inhibition constant)
T1 sequence (Q9C1S9 17-476): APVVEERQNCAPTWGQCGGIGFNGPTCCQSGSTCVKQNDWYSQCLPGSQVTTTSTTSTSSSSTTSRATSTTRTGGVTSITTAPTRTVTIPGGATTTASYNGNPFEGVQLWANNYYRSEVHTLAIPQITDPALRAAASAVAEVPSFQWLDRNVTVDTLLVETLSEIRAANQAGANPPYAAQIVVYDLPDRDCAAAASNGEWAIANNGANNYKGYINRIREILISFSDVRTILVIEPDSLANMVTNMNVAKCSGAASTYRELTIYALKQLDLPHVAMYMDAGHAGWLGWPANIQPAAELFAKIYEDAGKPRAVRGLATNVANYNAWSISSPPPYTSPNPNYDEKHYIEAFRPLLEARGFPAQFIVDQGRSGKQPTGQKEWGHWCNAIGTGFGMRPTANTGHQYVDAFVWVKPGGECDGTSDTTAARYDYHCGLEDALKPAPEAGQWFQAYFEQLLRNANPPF
Source text: The ability of the cellobiose oxidase to oxidize cellodextrins by means of an electron acceptor was utilized in an assay for cellulases. […] With this assay the kinetic constants for reduced cellodextrins of 5 different cellulases have been determined (table 2). […] The enzymes show very different substrate specificity, some of them requiring quite long substrates making it impossible to use the umbelliferyl cellobiosides and lactosides available for steady state kinetic. […] The inhibition constants were determined for two cellulases using the developed assay.

[1] = test system: Endo (cellulase, first line of the table); test: as above; type: biochemical; conditions: reduced cellodextrin substrate
Source text: (§1) The ability of the cellobiose oxidase to oxidize cellodextrins by means of an electron acceptor was utilized in an assay for cellulases. […] With this assay the kinetic constants for reduced cellodextrins of 5 different cellulases have been determined (table 2). […] The enzymes show very different substrate specificity, some of them requiring quite long substrates making it impossible to use the umbelliferyl cellobiosides and lactosides available for steady state kinetic.

EG C (cellulase) = test: as above; type: biochemical; conditions: reduced cellodextrin substrate
Source text: as §1

Endo B (cellulase) = test: as above; type: biochemical; conditions: reduced cellodextrin substrate
Source text: as §1

EG A (cellulase) = test: as above; type: biochemical; conditions: reduced cellodextrin substrate
Source text: as §1

Endo A (cellulase) = test: as above; type: biochemical; conditions: coupled CBO/DCPIP assay
Source text: The ability of the cellobiose oxidase to oxidize cellodextrins by means of an electron acceptor was utilized in an assay for cellulases. By using a substrate without a reducing end, such as a reduced cellodextrin, the reducing ends formed by the hydrolysis by the cellulase will be oxidized by the CBO. Simultaneously the coloured electron acceptor, dichlorophenolindophenol (DCPIP), is reduced by cellobiose oxidase to a colourless compound making it possible to follow the reaction spectrophotometrically at 600 nm DCPIP was chosen as electron acceptor because of its high extinction coefficient.
The inhibitors methyl 4-thiocellotrioside, methyl 4-thiocellotetraoside and methyl 4-thiocellopentaoside were synthesized at the laboratory in Grenoble^5. The inhibition constants were determined for two cellulases using the developed assay.

[2] = substrate: OC[C@H]1O[C@@H](O[C@H]2[C@H](O)[C@@H](O)C(O)O[C@@H]2CO)[C@H](O)[C@@H](O)[C@H]1O; test: purified protein, by the assay type; conditions: other: sugar + 90 μM DCPIP, 0.1M sodium phosphate buffer, pH 7.5, 40° C.
Protocol: (§2) The measurements were performed in 0.1M sodium phosphate buffer at pH 7.5 at 40° C. 450 μl of a mixture of 100 μM of 2,6-Dichlorophenol-indophenol (DCPIP, Merck), 250 μM of cellobiose (Sigma) were mixed with 50 μl enzyme. Units of activity equals μmol cellobiose oxidized (DCPIP reduced) per min.
(§3) All measurements were performed in 0.1M sodium phosphate buffer, pH 7.5, at 40° C. […] The reactions were monitored for 400 s as changes in absorbance at the appropirate wavelength (see above). […] The catalytic constants (kcat) were expressed as mol of oxidized cellobiose/s/mol of enzyme. […] The kinetic constants were determined using Lineweaver-Burke plots and were the result of dual determinations.

[3] = substrate: CC(C)(C)C1=CC(=O)C(=O)C(C(C)(C)C)=C1; test: purified protein, by the assay type; conditions: other: electron acceptor + 225 μM cellobiose, 0.1M sodium phosphate buffer, pH 7.5, 40° C.
[4] = substrate: CN(C)c1ccc2nc3ccc(=[N+](C)C)cc-3sc2c1; test: purified protein, by the assay type; conditions: other: electron acceptor + 225 μM cellobiose, 0.1M sodium phosphate buffer, pH 7.5, 40° C.
[5] = substrate: O=C1C(Cl)=CC(=Nc2ccc(O)cc2)C=C1Cl; test: purified protein, by the assay type; conditions: other: electron acceptor + 225 μM cellobiose, 0.1M sodium phosphate buffer, pH 7.5, 40° C.
Protocol: as §2, §3

[6] = substrate: OC[C@H]1O[C@H](O[C@H]2[C@H](O)[C@@H](O)[C@H](O)O[C@@H]2CO)[C@H](O)[C@@H](O)[C@@H]1O; test: purified protein, by the assay type; conditions: other: sugar + 90 μM DCPIP, 0.1M sodium phosphate buffer, pH 7.5, 40° C.
Protocol: as §2, §3

[7] = substrate: OC[C@H]1O[C@@H](O[C@H]2[C@H](O)[C@@H](O)[C@H](O[C@H]3[C@H](O)[C@@H](O)[C@H](O[C@H]4[C@H](O)[C@@H](O)C(O)O[C@@H]4CO)O[C@@H]3CO)O[C@@H]2CO)[C@H](O)[C@@H](O)[C@@H]1O; test: purified protein, by the assay type; conditions: other: sugar + 90 μM DCPIP, 0.1M sodium phosphate buffer, pH 7.5, 40° C.
[8] = substrate: OC[C@H]1O[C@@H](O[C@H]2[C@H](O)[C@@H](O)C(O)O[C@@H]2CO)[C@H](O)[C@@H](O)[C@@H]1O; test: purified protein, by the assay type; conditions: other: sugar + 90 μM DCPIP, 0.1M sodium phosphate buffer, pH 7.5, 40° C.
Protocol: as §2, §3

[9] = substrate: OC[C@H]1O[C@@H](O[C@H]2[C@H](O)[C@@H](O)[C@H](O[C@H]3[C@H](O)[C@@H](O)C(O)O[C@@H]3CO)O[C@@H]2CO)[C@H](O)[C@@H](O)[C@@H]1O; test: purified protein, by the assay type; conditions: other: sugar + 90 μM DCPIP, 0.1M sodium phosphate buffer, pH 7.5, 40° C.
[10] = read-out: KL (inhibition constant)
[11] = read-out: KLS (inhibition constant)

Work on OC[C@@H](O)[C@@H](O[C@@H]1O[C@H](CO)[C@@H](O[C@@H]2O[C@H](CO)[C@@H](O)[C@H](O)[C@H]2O)[C@H](O)[C@H]1O)[C@H](O)[C@@H](O)CO [Red. DP3] yielded a kcat (CBH II (cellulase); reduced cellodextrin substrate) of 0 s⁻¹, a Km [1] of 500 µM and a kcat [1] of 0.24 s⁻¹. It also gave a kcat (EG C (cellulase)) of 0 s⁻¹, a kcat (Endo B (cellulase)) of 0 s⁻¹ and a kcat (EG A (cellulase)) of 0 s⁻¹.

methyl 4-thiocellotrioside [S-DP3] gave a Ki (CBH II (cellulase)) of 1400 µM, a Ki (Endo A (cellulase); [10]) of 300 µM and a Ki (Endo A (cellulase); [11]) of 2000 µM.

With methyl 4-thiocellopentaoside [S-DP5] the Ki (CBH II (cellulase)) was 15 µM and the Ki (Endo A (cellulase); [10]) was 35 µM.

methyl 4-thiocellotetraoside [S-DP4] was tested, and the Ki (CBH II (cellulase)) was 270 µM, the Ki (Endo A (cellulase); [10]) was 75 µM and the Ki (Endo A (cellulase); [11]) was 1000 µM.

B1: Humicola insolens cellobiose oxidase (CBO, 92 kDa, pI 4.0) (Mycothermus thermophilus) (protein)
chain: QATGDAYTDSETGIKFQTWSPDPQFTFGLALPPDALEKDATEYIGLLRCTRADPSDPGYCGLSHGQVGQMTQSLLLVAWAYENQVYTSFRYATGYTLPGLYTGNAKLTQLSVNITDTSFELIYRCENCFSWEHEGSTGSSSTSQGYLVLGRASARRGVVGPTCPDTATFGFHDNGFGQWGVGLENAVSEQYSEWASLPGLTVETTCEGSGPGEAQCVPAPEETYDYIVVGAGAGGIPVADKLSEAGHKVLLIEKGPPSTGRWQGTMKPEWLEGTDLTRFDVPGLCNQIWVDSAGIACTDTDQMAGCVLGGGTAVNAGLWWKPIDLDWDENFPEGWHSQDLAAATERVFERIPGTWHPSMDGKLYRDEGYKVLSSGLAESGWKEVVANEVPNEKNRTFAHTHFMFAGGERNGPLATYLVSADARENFSLWTNTAVRRAVRTGGKVTGVELECLTDGGYSGIVKLNEGGGVIFSAGAFGSAKLLFRSGIGPEDQLRVVASSKDGEDFIDEKDWIKLPVGYNLIDHLNTDLILTHPDVVFYDFYEAWTTPIEADKQLYLEQRSGILAQAAPNIGPMMWEQVTPSDGITRQFQWTARVEGDSRFTNSSHAMTLSQYLGRGVVSRGRATITQGLVTTVAEHPYLHNAGDKEAVIQGIKNLIESLNVIPNITWVLPPPGSTVEEYVDSLLVSASARRSNHWMGTAKLGTDDGRYGGTSVVDLDTKVYGTDNLFVVDASIFPGMSTGNPSAMIVIAAEQAAERILKLRK
Work on B1 yielded a Km [2] of 51 µM, a kcat [2] of 10 s⁻¹ and a Km [3] of 132 µM. It also gave a Km [4] of 18 µM, a kcat [4] of 1.85 s⁻¹ and a Km [5] of 26 µM. For the same molecule, the kcat [5] was 12 s⁻¹, the Km [6] was 11,000 μM and the kcat [6] was 0.83 s⁻¹. It also gave a Km [7] of 21 µM, a Km [8] of 11 µM and a kcat [8] of 10 s⁻¹. The Km [9] was 19 µM.
